The text below walks through data of patent publication EP0322133A1, “Quinazoline derivatives” (SmithKline Beecham Intercredit B.V., priority 1987, dated 1989).

This test relates to pentagastrin stimulated gastric acid secretion. Nature of the test: Rat lumen perfused stomach (modified Ghosh and Schild procedure). In kind it is in vivo. Particulars: i.v. administration; for inhibition at 10 µmol/kg: iv, 10µmole/kg, read-out: Rat G.S. % inhibition @ 10µmole/kg. From the text: Using a modification of the procedure described by Ghosh and Schild (Br. J. Pharmacology, 13, 54, 1958), the compounds of the following Examples were found on i.v. administration at a concentration of 10µmole/kg to cause an inhibition of pentagastrin stimulated gastric acid secretion as indicated in the following Table.

Counter-ions that a name gives are not always drawn.

On to `Cc1ccccc1CNc1nc(N(C)c2ccccc2)c2ccccc2n1` [Example 31, 2-(2-methylbenzylamino)-4-(N-methylphenylamino)quinazoline hydrochloride], for which the inhibition at 10 µmol/kg turned out to be 8%.

For the compound `COc1cccc2c(Nc3ccccc3C)nc(N(C)c3ccccc3)nc12` [Example 21, 2-(N-methylphenylamino)-4-(2-methylphenylamino)-8-methoxyquinazoline], the inhibition at 10 µmol/kg stood at 37%. On the same count and under the same terms, in the case of `Cc1cc(F)ccc1Nc1nc(N(C)c2ccccc2)c2ccccc2n1` [Example 32, 2-[(2-methyl-4-fluorophenyl)amino]-4-(N-methylphenylamino)quinazoline hydrochloride] it was 96%; in that of `Cc1ccccc1Nc1nc(N2CCCC2)nc2ccccc12` [Example 8, 2-pyrrolidino-4-(2-methylphenylamino)quinazoline], 17%; in that of `Cc1ccccc1Nc1nc(N)nc2c(C)cccc12` [Example 6, 2-amino-8-methyl-4-(2-methylphenylamino)quinazoline], 48%. Same read-out and setting: in the case of `Cc1ccccc1Nc1nc(N(C)c2ccccc2)nc2ccccc12` [Example 22, 2-(N-methylphenylamino)-4-(2-methylphenylamino)quinazoline hydrochloride] it was 27%; in that of `COc1cccc2c(NCc3ccccc3C)nc(N)nc12` [Example 4, 2-amino-8-methoxy-4-(2-methylbenzylamino)quinazoline], 37%; in that of `CNc1nc(Nc2ccccc2C)c2cccc(OC)c2n1` [Example 13, 2-methylamino-8-methoxy-4-(2-methylphenylamino)quinazoline], 20%. Same read-out and setting: in the case of `CCc1ccc2nc(N)nc(Nc3ccccc3C)c2c1` [Example 11, 2-amino-4-(2-methylphenylamino)-6-ethylquinazoline] it was 28%; in that of `COc1cccc2c(NCc3ccccc3)nc(N)nc12` [Example 2, 2-amino-8-methoxy-4-benzylaminoquinazoline], 25%. As for `COc1cccc2c(Nc3ccccc3C)nc(N3CCCC3)nc12` [Example 15, 2-pyrrolidino-8-methoxy-4-(2-methylphenylamino)quinazoline], the inhibition at 10 µmol/kg was 31%. As for `COc1cccc2c(Nc3ccccc3C)nc(N)nc12` [Example 1, 2-amino-8-methoxy-4-(2-methylphenylamino)quinazoline], the inhibition at 10 µmol/kg was found to be 60%. On the same count and under the same terms, in the case of `COc1cccc2c(Nc3ccccc3C)nc(N(C)C)nc12` [Example 5, 2-dimethylamino-8-methoxy-4-(2-methylphenylamino)quinazoline] it was 37%; in that of `COc1ccccc1Nc1nc(N)nc2c(OC)cccc12` [Example 18, 2-amino-8-methoxy-4-(2-methoxyphenylamino)quinazoline], 12%. In the case of `Cc1ccccc1Nc1nc(N(C)c2ccccc2)c2ccccc2n1` [Example 26, 2-(2-methylphenylamino)-4-(N-methylphenylamino)quinazoline hydrochloride], the inhibition at 10 µmol/kg was found to be 79%. “2-phenylethylamino-4-(2-methylphenylamino)quinazoline [Example 16]”: the “Rat G.S. % inhibition @ 10µmole/kg” value is given as 31%. As to `CN(c1ccccc1)c1nc(N(C)c2ccccc2)c2ccccc2n1` [Example 20, 2,4-Bis-(N-methylphenylamino)quinazoline hydrochloride], the inhibition at 10 µmol/kg is 72%. Same read-out and setting: in the case of `Cc1cc(O)ccc1Nc1nc(N(C)c2ccccc2)c2ccccc2n1` [Example 30, 2-[(4-hydroxy-2-methylphenyl)amino]-4-(N-methylphenylamino) quinazoline hydrochloride] it was 23%; in that of `COc1cccc2c(N(C)c3ccccc3)nc(N)nc12` [Example 29, 2-amino-4-(N-methylphenylamino)-8-methoxyquinazoline hydrochloride], 13%; in that of `COc1cccc2c(N(C)c3ccccc3)nc(Nc3ccccc3C)nc12` [Example 24, 4-(N-methylphenylamino)-2-(2-methylphenylamino)-8-methoxyquinazoline], 97%. On to `Cc1ccccc1Nc1nc(N)nc2ccccc12` [Example 7, 2-amino-4-(2-methylphenylamino)quinazoline], for which the inhibition at 10 µmol/kg was determined as 20%. Same read-out and setting: in the case of `Cc1ccccc1CNc1nc(N)nc2ccccc12` [Example 25, 2-amino-4-(2-methylbenzylamino)quinazoline] it was 24%; in that of `COc1ccc(Nc2nc(N)nc3c(OC)cccc23)c(C)c1` [Example 3, 2-amino-8-methoxy-4-(2-methyl-4-methoxyphenylamino)quinazoline], 16%. As to `CN(c1ccccc1)c1nc(Nc2ccccc2)nc2ccccc12` [Example 27, 2-phenylamino-4-(N-methylphenylamino)quinazoline hydrochloride], the inhibition at 10 µmol/kg is 71%.
